Source: patent publication US11596639B2, “Substituted indole Mcl-1 inhibitors” (Vanderbilt University, priority 2016, dated 2023)
Read-outs that look alike come from different tables or passages of the source.

Tests used:
[1] = test system: H929 human cancer cell lines; assay: Cellular viability / proliferation (Cell TiterGlo, 72 h); assay type: cell-based
In short: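 Compounds were added as 2-fold serial dilutions from 50 μM (final DMSO <1%) to H929 cells seeded 1,000 per well in 10% FBS medium one day earlier.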

[2] = target: Mcl-1 (Homo sapiens (Human), UniProt Q07820); assay: Fluorescence polarization anisotropy (FPA) competition assay, FITC-Bak or FITC-Bim BH3 peptide; assay type: binding; details: read-out: Ki for Inhibition of Mcl-1 by FPA assay
Mcl-1, sequence (Q07820 172-327): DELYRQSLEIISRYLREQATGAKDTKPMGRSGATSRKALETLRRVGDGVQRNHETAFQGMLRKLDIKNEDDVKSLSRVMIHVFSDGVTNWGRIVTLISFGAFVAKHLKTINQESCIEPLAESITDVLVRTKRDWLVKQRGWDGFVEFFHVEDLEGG

[3] = Homo sapiens, NCI-H929, 72 h, read-out: GI50 on cellular proliferation of H929 human cancer cell lines, H929 cells, 72 h, Cell TiterGlo, 10% FBS

Row | Structure (SMILES) | GI50 [1, 3] [µM] | Ki [2] [µM] | GI50 ([1]; H929 cells, 72 h, Cell TiterGlo, 10% FBS, read-out: GI50 on cellular proliferation of H929 human cancer cell lines) [µM]
1 | Cc1cc(OCCCc2c3n(c4c(-c5c(C)nn(C)c5C)c(Cl)ccc24)[C@H](C)CN(c2cccc4cc(C(=O)O)n(CC5(C)COC5)c24)C3=O)cc(C)c1Cl [Example 380, (R)-7-(7-chloro-10-(3-(4-chloro-3,5-dimethylphenoxy)propyl)-4-methyl-1-oxo-6-(1,3,5-trimethyl-1H-pyrazol-4-yl)-3,4-dihydropyrazino[1,2-a]indol-2(1H)-yl)-1-((3-methyloxetan-3-yl)methyl)-1H-indole-2-carboxylic acid] | 2.5 | 0.0079 | –
2 | Cc1cc(OCCCc2c3n(c4c(-c5c(C)nn(C)c5C)c(Cl)ccc24)[C@H](C)CN(c2cc(C(C)C)cc4cc(C(=O)O)n(Cc5ccccn5)c24)C3=O)cc(C)c1Cl [Example 359, (R)-7-(7-Chloro-10-(3-(4-chloro-3,5-dimethylphenoxy)propyl)-4-methyl-1-oxo-6-(1,3,5-trimethyl-1H-pyrazol-4-yl)-3,4-dihydropyrazino[1,2-a]indol-2(1H)-yl)-5-isopropyl-1-(pyridin-2-ylmethyl)-1H-indole-2-carboxylic acid] | 0.29 | 0.0014 | –
3 | Cc1cc(OCCCc2c3n(c4c(-c5c(C)nn(C)c5C)c(Cl)ccc24)[C@H](C)CN(c2nc(C(=O)O)c4ccccn24)C3=O)cc(C)c1Cl [Example 111, (R)-3-(7-chloro-10-(3-(4-chloro-3,5-dimethylphenoxy)propyl)-4-methyl-1-oxo-6-(1,3,5-trimethyl-1H-pyrazol-4-yl)-3,4-dihydropyrazino[1,2-a]indol-2(1H)-yl)imidazo[1,5-a]pyridine-1-carboxylic acid] | 2.6 | < 0.001 | –
4 | Cc1cc(OCCCc2c3n(c4c(-c5c(C)nn(C)c5C)c(Cl)ccc24)[C@H](C)CN(c2c[nH]c4ccc(-c5ncn(C)n5)cc24)C3=O)cc(C)c1Cl [Example 471, (R)-7-chloro-10-(3-(4-chloro-3,5-dimethylphenoxy)propyl)-4-methyl-2-(5-(1-methyl-1H-1,2,4-triazol-3-yl)-1H-indol-3-yl)-6-(1,3,5-trimethyl-1H-pyrazol-4-yl)-3,4-dihydropyrazino[1,2-a]indol-1(2H)-one] | 0.36 | 0.0023 | –
5 | Cc1cc(OCCCc2c3n(c4c(-c5c(C)n[nH]c5C)c(Cl)ccc24)CCCN(c2cc(C(=O)O)c4cnn(C)c4c2)C3=O)cc(C)c1Cl [Example 95, 6-(8-Chloro-1-(3-(4-chloro-3,5-dimethylphenoxy)propyl)-7-(3,5-dimethyl-1H-pyrazol-4-yl)-1-oxo-4,5-dihydro-1H-[1,4]diazepino[1,2-a]indol-2(3H)-yl)-1-methyl-1H-indazole-4-carboxylic acid] | – | < 0.001 | 10
6 | Cc1cc(OCCCc2c3n(c4c(-c5c(C)nn(C)c5C)c(Cl)ccc24)CCCN(c2nc(C(=O)O)n[nH]2)C3=O)cc(C)c1Cl [Example 37, 5-(8-Chloro-11-(3-(4-chloro-3,5-dimethylphenoxy)propyl)-1-oxo-7-(1,3,5-trimethyl-1H-pyrazol-4-yl)-4,5-dihydro-1H-[1,4]diazepino[1,2-a]indol-2(3H)-yl)-1H-1,2,4-triazole-3-carboxylic acid] | 1.8 | 0.003 | –
7 | Cc1cc(OCCCc2c3n(c4c(-c5c(C)nn(C)c5C)c(Cl)ccc24)[C@H](C)CN(c2cn(C)c4ccc(C(=O)NNc5ccccc5)cc24)C3=O)cc(C)c1Cl [Example 427, (R)-3-(7-Chloro-10-(3-(4-chloro-3,5-dimethylphenoxy)propyl)-4-methyl-1-oxo-6-(1,3,5-trimethyl-1H-pyrazol-4-yl)-3,4-dihydropyrazino[1,2-a]indol-2(1H)-yl)-1-methyl-N′-phenyl-1H-indole-5-carbohydrazide] | 0.49 | 0.0012 | –
8 | Cc1cc(OCCCc2c3n(c4c(-c5c(C)nn(C)c5C)c(Cl)ccc24)[C@H](C)CN(c2cccc4cc5n(c24)CCNC5=O)C3=O)cc(C)c1Cl [Example 434, (R)-7-Chloro-10-(3-(4-chloro-3,5-dimethylphenoxy)propyl)-4-methyl-6-(1,3,5-trimethyl-1H-pyrazol-4-yl)-3,3′,4,4′-tetrahydro-1H-[2,6′-bipyrazino[1,2-a]indole]-1,1′(2′H)-dione] | 0.89 | 0.0055 | –
9 | Cc1cc(OCCCc2c3n(c4c(-c5c(C)ncnc5C)c(Cl)ccc24)[C@H](C)CN(c2cn(C)c4cc(C(=O)O)ccc24)C3=O)cc(C)c1Cl [Example 153, 3-[(4R)-7-chloro-10-[3-(4-chloro-3,5-dimethyl-phenoxy)propyl]-6-(4,6-dimethylpyrimidin-5-yl)-4-methyl-1-oxo-3,4-dihydropyrazino[1,2-a]indol-2-yl]-1-methyl-indole-6-carboxylic acid] | 0.41 | < 0.001 | –
10 | Cc1cc(OCCCc2c3n(c4c(-c5c(C)nn(C)c5C)c(Cl)ccc24)[C@H](C)CN(c2cc(C(=O)O)cc4c2OCO4)C3=O)cc(C)c1Cl [Example 33, (R)-7-(7-chloro-10-(3-(4-chloro-3,5-dimethylphenoxy)propyl)-4-methyl-1-oxo-6-(1,3,5-trimethyl-1H-pyrazol-4-yl)-3,4-dihydropyrazino[1,2-a]indol-2(1H)-yl)benzo[d][1,3]dioxole-5-carboxylic acid] | 0.65 | < 0.001 | –
11 | Cc1cc(OCCCc2c3n(c4c(-c5c(C)nn(C)c5C)c(Cl)ccc24)[C@H](C)CN(c2cccc4c2cc(C(=O)O)n4CC2CCOCC2)C3=O)cc(C)c1Cl [Example 198, (R)-4-(7-Chloro-10-(3-(4-chloro-3,5-dimethylphenoxy)propyl)-4-methyl-1-oxo-6-(1,3,5-trimethyl-1H-pyrazol-4-yl)-3,4-dihydropyrazino[1,2-a]indol-2(1H)-yl)-1-((tetrahydro-2H-pyran-4-yl)methyl)-1H-indole-2-carboxylic acid] | 0.61 | < 0.001 | –
12 | Cc1cc(OCCCc2c3n(c4c(-c5c(C)nn(C)c5C)c(Cl)ccc24)[C@H](C)CN(c2cccc4c2cc(C(=O)O)n4CCN2CCOCC2)C3=O)cc(C)c1Cl [Example 367, (R)-4-(7-Chloro-10-(3-(4-chloro-3,5-dimethylphenoxy)propyl)-4-methyl-1-oxo-6-(1,3,5-trimethyl-1H-pyrazol-4-yl)-3,4-dihydropyrazino[1,2-a]indol-2(1H)-yl)-1-(2-morpholinoethyl)-1H-indole-2-carboxylic acid] | 0.4 | 0.0012 | –
13 | Cc1cc(OCCCc2c3n(c4c(-c5c(C)nn(C)c5C)c(Cl)ccc24)[C@H](C)CN(c2cc(Cl)cc4c(C(=O)O)cn(C)c24)C3=O)cc(C)c1Cl [Example 449, (R)-5Chloro-7-(7-chloro-10-(3-(4-chloro-3,5-dimethylphenoxy)propyl)-4-methyl-1-oxo-6-(1,3,5-trimethyl-1H-pyrazol-4-yl)-3,4-dihydropyrazino[1,2-a]indol-2(1H)-yl)-1-methyl-1H-indole-3-carboxylic acid] | 1.2 | 0.0026 | –
14 | CNS(=O)(=O)c1ccc2c(c1)c(N1C[C@@H](C)n3c(c(CCCOc4cc(C)c(Cl)c(C)c4)c4ccc(Cl)c(-c5c(C)nn(C)c5C)c43)C1=O)cn2C [Example 267, (R)-3-(7-chloro-10-(3-(4-chloro-3,5-dimethylphenoxy)propyl)-4-methyl-1-oxo-6-(1,3,5-trimethyl-1H-pyrazol-4-yl)-3,4-dihydropyrazino[1,2-a]indol-2(1H)-yl)-N,1-dimethyl-1H-indole-5-sulfonamide] | 3.1 | 0.0047 | –
15 | Cc1cc(OCCCc2c3n(c4c(-c5c(C)ncnc5C)c(Cl)ccc24)[C@H](C)CN(c2cccc4cc(C(=O)O)n(C)c24)C3=O)cc(C)c1Cl [Example 238, 7-[(4R)-7-chloro-10-[3-(4-chloro-3,5-dimethyl-phenoxy)propyl]-6-(4,6-dimethylpyrimidin-5-yl)-4-methyl-1-oxo-3,4-dihydropyrazino[1,2-a]indol-2-yl]-1-methyl-indole-2-carboxylic acid] | 0.34 | < 0.001 | –
16 | Cc1cc(OCCCc2c3n(c4c(-c5c(C)ncnc5C)c(Cl)ccc24)[C@H](C)CN(c2cccc4cc(C(=O)O)cnc24)C3=O)cc(C)c1Cl [Example 227, 8-[(4R)-7-chloro-10-[3-(4-chloro-3,5-dimethyl-phenoxy)propyl]-6-(4,6-dimethylpyrimidin-5-yl)-4-methyl-1-oxo-3,4-dihydropyrazino[1,2-a]indol-2-yl]quinoline-3-carboxylic acid] | 1.3 | < 0.001 | –
17 | Cc1cc(OCCCc2c3n(c4c(-c5c(C)nn(C)c5C)c(Cl)ccc24)[C@H](C)CN(c2cccc4cc(C(=O)O)n(CCN(C)C)c24)C3=O)cc(C)c1Cl [Example 322, (R)-7-(7-Chloro-10-(3-(4-chloro-3,5-dimethylphenoxy)propyl)-4-methyl-1-oxo-6-(1,3,5-trimethyl-1H-pyrazol-4-yl)-3,4-dihydropyrazino[1,2-a]indol-2(1H)-yl)-1-(2-(dimethylamino)ethyl)-1H-indole-2-carboxylic acid] | 1.8 | 0.0017 | –
18 | CCn1ncc2cc(C(=O)O)cc(N3CCCn4c(c(CCCOc5cc(C)c(Cl)c(C)c5)c5ccc(Cl)c(-c6c(C)nn(C)c6C)c54)C3=O)c21 [Example 122, 7-(8-Chloro-11-(3-(4-chloro-3,5-dimethylphenoxy)propyl)-1-oxo-7-(1,3,5-trimethyl-1H-pyrazol-4-yl)-4,5-dihydro-1H-[1,4]diazepino[1,2-a]indol-2(3H)-yl)-1-ethyl-1H-indazole-5-carboxylic acid] | 11 | 0.0022 | –
19 | Cc1cc(OCCCc2c3n(c4c(-c5c(C)nn(C)c5C)c(Cl)ccc24)[C@H](C)CN(c2cccc4cc(C(=O)O)n(Cc5ncccn5)c24)C3=O)cc(C)c1Cl [Example 329, (R)-7-(7-Chloro-10-(3-(4-chloro-3,5-dimethylphenoxy)propyl)-4-methyl-1-oxo-6-(1,3,5-trimethyl-1H-pyrazol-4-yl)-3,4-dihydropyrazino[1,2-a]indol-2(1H)-yl)-1-(pyrimidin-2-ylmethyl)-1H-indole-2-carboxylic acid] | 1.1 | < 0.001 | –
